In the supplement of paper PMC10307832:

Tests used:
Assay in all cases: relative viability (nuclei count vs DMSO), 5 days (fraction); higher = more cells survive
BMX-IN-1 + Crizotinib = compound: C=CC(=O)Nc1cc(-n2c(=O)ccc3cnc4ccc(-c5ccc(NS(C)(=O)=O)cc5)cc4c32)ccc1C [BMX-IN-1] + C[C@@H](Oc1cc(-c2cnn(C3CCNCC3)c2)cnc1N)c1c(Cl)ccc(F)c1Cl [Crizotinib] (partner 1 µM)
How it was run: (§1)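 Lung cancer cell lines were seeded in 1536-well plates and dosed by pin tool the next day, with either a single drug or a fixed anchor-drug dose combined with five library-drug doses (not always all listed) spaced in √10 steps. Five days later, one step fixed the cells and stained their nuclei (final 0.05% Triton X-100, 1% formaldehyde, 1 ug/ml Hoechst), and nuclei were counted on 4× images. Relative viability is the nuclei count in treated wells divided by the count in vehicle wells, and each value is the median of duplicate plates.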

BMX-IN-1 + Alpelisib = compound: C=CC(=O)Nc1cc(-n2c(=O)ccc3cnc4ccc(-c5ccc(NS(C)(=O)=O)cc5)cc4c32)ccc1C [BMX-IN-1] + Cc1nc(NC(=O)N2CCC[C@H]2C(N)=O)sc1-c1ccnc(C(C)(C)C(F)(F)F)c1 [Alpelisib] (partner 2 µM)
How it was run: as §1

BMX-IN-1 + Decitabine = compound: C=CC(=O)Nc1cc(-n2c(=O)ccc3cnc4ccc(-c5ccc(NS(C)(=O)=O)cc5)cc4c32)ccc1C [BMX-IN-1] + Nc1ncn([C@H]2C[C@H](O)[C@@H](CO)O2)c(=O)n1 [Decitabine] (partner 2 µM)
How it was run: as §1

PAC-1 + Palbociclib = compound: C=CCc1cccc(/C=N/NC(=O)CN2CCN(Cc3ccccc3)CC2)c1O [PAC-1] + CC(=O)c1c(C)c2cnc(Nc3ccc(N4CCNCC4)cn3)nc2n(C2CCCC2)c1=O [Palbociclib] (partner 0.5 µM)
How it was run: as §1

PAC-1 + Vorinostat = compound: C=CCc1cccc(/C=N/NC(=O)CN2CCN(Cc3ccccc3)CC2)c1O [PAC-1] + O=C(CCCCCCC(=O)Nc1ccccc1)NO [Vorinostat] (partner 1 µM)
How it was run: as §1

Cell Line	relative viability (BMX-IN-1 + Crizotinib; first compound 0.02 µM)	relative viability (BMX-IN-1 + Crizotinib; first compound 0.2 µM)	relative viability (BMX-IN-1 + Crizotinib; first compound 0.6325 µM)	relative viability (BMX-IN-1 + Crizotinib; first compound 2 µM)	relative viability (BMX-IN-1 + Alpelisib; first compound 0.02 µM)	relative viability (BMX-IN-1 + Alpelisib; first compound 0.2 µM)	relative viability (BMX-IN-1 + Alpelisib; first compound 0.6325 µM)	relative viability (BMX-IN-1 + Alpelisib; first compound 2 µM)	relative viability (BMX-IN-1 + Decitabine; first compound 0.02 µM)	relative viability (BMX-IN-1 + Decitabine; first compound 0.2 µM)	relative viability (BMX-IN-1 + Decitabine; first compound 0.6325 µM)	relative viability (BMX-IN-1 + Decitabine; first compound 2 µM)	relative viability (PAC-1 + Palbociclib; first compound 0.02 µM)	relative viability (PAC-1 + Palbociclib; first compound 0.06325 µM)	relative viability (PAC-1 + Palbociclib; first compound 0.2 µM)	relative viability (PAC-1 + Palbociclib; first compound 2 µM)	relative viability (PAC-1 + Vorinostat; first compound 0.02 µM)	relative viability (PAC-1 + Vorinostat; first compound 0.06325 µM)	relative viability (PAC-1 + Vorinostat; first compound 0.2 µM)	relative viability (PAC-1 + Vorinostat; first compound 2 µM)
LCLC-103H	1.19	1.05	1.07	1.07	1.01	0.972	1.09	0.875	0.795	0.782	0.714	0.689	0.482	0.489	0.503	0.438	0.854	0.864	0.759	0.826
LK-2	0.232	0.207	0.252	0.191	1.75	1.43	1.04	0.993	0.262	0.326	0.269	0.335	0.536	0.809	0.616	0.63	0.317	0.306	0.301	0.58
LOU-NH91		0.764	0.752	0.731		0.686	0.768	0.709		0.799	0.842	0.828	0.573	0.539	0.526	0.515	0.876	0.937	0.897	0.887
LU99A	0.639	0.567	0.547	0.579	0.482	0.659	0.526	0.532	0.922	0.855	1.13	0.882	0.425	0.422	0.461	0.408	0.502	0.448	0.429	0.502
LXF-289	0.876	0.907	0.842	0.815	1.12	1.14	1.11	1.07	0.388	0.338	0.374	0.41	0.605	0.599	0.597	0.597	0.793	0.765	0.731	0.732
NCI-H23	0.501	0.538	0.419	0.5	0.617	0.793	0.603	0.692	0.326	0.295	0.338	0.296	0.629	0.521	0.524	0.533	0.692	0.567	0.651	0.751
NCI-H322M	1.02	1.05	0.982	0.887	0.882	0.825	0.757	0.772	0.604	0.699	0.722	0.661	0.434	0.42	0.519	0.466	0.749	0.907	1.04	0.828
NCI-H358	0.498	0.611	0.538	0.512	0.861	0.881	0.937	0.81	0.181	0.2	0.239	0.214	0.12	0.133	0.116	0.115	0.645	0.665	0.706	0.674
NCI-H441	0.861	0.936	0.884	0.787	0.658	0.917	1.04	0.641	0.256	0.246	0.321	0.233	0.194	0.266	0.26	0.2	0.87	1.05	0.82	0.761
NCI-H460	1.57	1.76	0.906	1.03	0.827	0.752	0.566	0.568	0.568	0.657	0.478	0.428	0.148	0.162	0.129	0.248	0.755	0.75	0.642	0.707
NCI-H520	1.37	1.08	0.79	0.795	1.26	0.922	0.873	0.753	0.549	0.494	0.449	0.529	0.21	0.256	0.179	0.268	0.57	0.722	0.687	0.678
NCI-H647	1.41	1.45	1.1	0.937	1.25	1.32	1.36	0.974	0.407	0.502	0.479	0.462	0.288	0.37	0.35	0.409	0.28	0.67	0.706	0.514
NCI-H650	0.881	0.863	0.707	0.774	1.2	1.19	1.27	1.1	0.321	0.303	0.318	0.346	0.317	0.296	0.39	0.342	0.494	0.36	0.442	0.395
NCI-H661		0.96	1.14	0.976	0.675	0.889	0.758	0.692	0.617	0.528	0.634	0.525	0.439	0.445	0.399	0.392	0.786	0.784	0.743	0.676
NCI-H727	1.15	1.12	1.01	0.846	0.499	0.671	0.766	0.578	0.668	0.917	0.777	1.01	0.516	0.597	0.681	0.714	1.09	1.1	1.06	1.13
NCI-H838	1.14	0.983	0.834	0.877	1.18	0.961	1.06	1.04	0.5	0.439	0.466	0.444	0.239	0.227	0.22	0.229	0.68	0.72	0.782	0.745
